From patent publication US20150209428A1, “PHARMACEUTICAL COMPOSITIONS FOR TOPICAL DELIVERY OF PHOTOSENSITIZERS AND USES THEREOF” (DERMIRA, INC., priority 2012, published 2015)

Legend:
[1] = Apparent solubility of lemuteporfin in various solvents (HPLC); assay type: physicochemical
From the text: The solubility of lemuteporfin in various solvent compositions is shown in the last column of Table 3. All values were obtained analytically by HPLC analysis.
Solubility results for lemuteporfin indicated maximum solubility in solvent-based formulations containing primarily benzyl alcohol. The amount of lemuteporfin that can be solubilized in benzyl alcohol following heating is approximately 2.5% w/w. The addition of other solvents reduces solubility by approximately the amount of the new solvent introduced. Diethylene glycol monoethyl ether (DGME) is about 20% as efficient at dissolving lemuteporfin as benzyl alcohol.

[2] = Solubility of lemuteporfin in the LTS formulation (stirred, sampled, filtered); assay type: physicochemical; settings: for Lemuteporfin content (% w/w), solubility in the formulation of Table 5: filtered
Method: The solution was stirred and samples were removed at various time points, and then filtered to determine the amount of undissolved lemuteporfin. The amount of lemuteporfin that dissolved was approximately 0.048%.
Studies were conducted to determine the effect of certain of the LTS excipients on the solubility of lemuteporfin.

Which “efficiency of DGME at dissolving lemuteporfin relative to benzyl alcohol” value ([1]; DGME versus benzyl alcohol) does the source give for lemuteporfin here?
The value was “about 20%”.

What about the “amount of lemuteporfin that can be solubilized in benzyl alcohol” value ([1]; benzyl alcohol, following heating) of the same substance?
The value was “approximately 2.5 % w/w”.

And the “Apparent Solubility, % w/w Lemuteporfin” value ([1]; solvent % w/w: Benzyl Alcohol 30, Ethanol (190) 70)?
The value was 0.455 % w/w.

What about the “Apparent Solubility, % w/w Lemuteporfin” value ([1]; solvent % w/w: Benzyl Alcohol 30, Oleyl Alcohol 70) of the same substance?
Its value is 0.166 % w/w.

And the “Apparent Solubility, % w/w Lemuteporfin” value ([1]; solvent % w/w: Benzyl Alcohol 40, Isopropyl Myristate 60)?
The value was 0.090 % w/w.

And the “Apparent Solubility, % w/w Lemuteporfin” value ([1]; solvent % w/w: Benzyl Alcohol 50, Ethanol (190) 50)?
The value was 0.453 % w/w.

And the “Apparent Solubility, % w/w Lemuteporfin” value ([1]; solvent % w/w: Benzyl Alcohol 50, Oleic Acid 50)?
Its value is 0.409 % w/w.

What about the “Apparent Solubility, % w/w Lemuteporfin” value ([1]; solvent % w/w: Benzyl Alcohol 50, Oleyl Alcohol 50) of the same substance?
Its value is 0.228 % w/w.

What about the “Apparent Solubility, % w/w Lemuteporfin” value ([1]; solvent % w/w: Benzyl Alcohol 50, Propylene Glycol 50) of the same substance?
Its value is 0.494 % w/w.

What about the “Apparent Solubility, % w/w Lemuteporfin” value ([1]; solvent % w/w: Benzyl Alcohol 90, Isopropyl Myristate 10) of the same substance?
Its value is 2.30 % w/w.

And the “Apparent Solubility, % w/w Lemuteporfin” value ([1]; solvent % w/w: Benzyl Alcohol 90, Oleic Acid 10)?
The value was 2.33 % w/w.

And the “Apparent Solubility, % w/w Lemuteporfin” value ([1]; solvent % w/w: Benzyl Alcohol 90, Oleyl Alcohol 5, Oleic Acid 5)?
The value was 2.22 % w/w.

What about the “Apparent Solubility, % w/w Lemuteporfin” value ([1]; solvent % w/w: Benzyl Alcohol 90, Oleyl Alcohol 10) of the same substance?
The value was 2.24 % w/w.

And the “Apparent Solubility, % w/w Lemuteporfin” value ([1]; solvent % w/w: Benzyl Alcohol 100)?
Its value is 2.55 % w/w.

What about the “Apparent Solubility, % w/w Lemuteporfin” value ([1]; solvent % w/w: DGME 45, Benzyl Alcohol 45, Oleyl Alcohol 5, Oleic Acid 5) of the same substance?
Its value is 1.373 % w/w.

And the “Apparent Solubility, % w/w Lemuteporfin” value ([1]; solvent % w/w: DGME 50, Benzyl Alcohol 15, Oleic Acid 35)?
The value was 0.230 % w/w.

What about the “Apparent Solubility, % w/w Lemuteporfin” value ([1]; solvent % w/w: DGME 50, Benzyl Alcohol 15, Oleyl Alcohol 35) of the same substance?
The value was 0.200 % w/w.

And the “Apparent Solubility, % w/w Lemuteporfin” value ([1]; solvent % w/w: DGME 50, Benzyl Alcohol 50)?
The value was 1.57 % w/w.

What about the “Apparent Solubility, % w/w Lemuteporfin” value ([1]; solvent % w/w: DGME 52, Benzyl Alcohol 16, Oleyl Alcohol 16, Oleic Acid 16) of the same substance?
Its value is 0.210 % w/w.

What about the “Apparent Solubility, % w/w Lemuteporfin” value ([1]; solvent % w/w: DGME 65, Oleyl Alcohol 17.5, Oleic Acid 17.5) of the same substance?
The value was 0.271 % w/w.

And the “Apparent Solubility, % w/w Lemuteporfin” value ([1]; solvent % w/w: DGME 65, Oleyl Alcohol 35)?
The value was 0.430 % w/w.

And the “Apparent Solubility, % w/w Lemuteporfin” value ([1]; solvent % w/w: DGME 90, Isopropyl Myristate 10)?
Its value is 0.430 % w/w.

What about the “Apparent Solubility, % w/w Lemuteporfin” value ([1]; solvent % w/w: DGME 90, Oleyl Alcohol 5, Oleic Acid 5) of the same substance?
The value was 0.420 % w/w.

And the “Apparent Solubility, % w/w Lemuteporfin” value ([1]; solvent % w/w: DGME 90, Oleyl Alcohol 10)?
The value was 0.420 % w/w.

And the “solubility of lemuteporfin in LTS solution system” value (from here on “solubility of lemuteporfin”) ([2]; isopropyl alcohol removed (data not shown))?
Its value is 0.07 % w/w.

And the “amount of lemuteporfin that dissolved in the Table 5 components” value ([2]; room temperature)?
The value was “approximately 0.048%”.

And the “Lemuteporfin content (% w/w), solubility in the formulation of Table 5” value (“Lemuteporfin content (% w/w), solubility” for short) ([2]; room temperature, time point 0.17 hours)?
The value was 0.0241 % w/w.

What about the “Lemuteporfin content (% w/w), solubility” value ([2]; room temperature, time point 2.47 hours) of the same substance?
The value was 0.0482 % w/w.

And the “Lemuteporfin content (% w/w), solubility” value ([2]; room temperature, time point 4.37 hours)?
Its value is 0.0453 % w/w.

What about the “Lemuteporfin content (% w/w), solubility” value ([2]; room temperature, time point 6.37 hours) of the same substance?
The value was 0.0463 % w/w.

What about the “Lemuteporfin content (% w/w), solubility” value ([2]; room temperature, time point 23.5 hours) of the same substance?
Its value is 0.0370 % w/w.

And the “solubility of lemuteporfin” value ([2]; with isopropyl alcohol (data not shown))?
Its value is “approximately 0.03 % w/w”.

What about the “solubility of lemuteporfin” value ([2]; with polysorbate 80 (data not shown)) of the same substance?
The value was 0.037 % w/w.

And the “solubility of lemuteporfin” value ([2]; without polysorbate 80 (data not shown))?
Its value is 0.027 % w/w.
